Test results published in article PMC5995184, “Potent anti-leukemic activity of a specific cyclin-dependent kinase 9 inhibitor in mouse models of chronic lymphocytic leukemia” (Oncotarget, 2018).

Columns and labels:
[1] = test system: TCL1 CLL cells (CD5+CD19+), T and B lymphocytes; assay: TCL1 transgenic CLL mice, oral LDC526, longitudinal blood and final spleen analysis; type: in vivo, mouse
From the text: Another widely used preclinical CLL model are TCL1 transgenic mice. The TCL1 transgenics represent a constitutive CLL model not involving the adoptive transfer of cells. This model mirrors the natural course of human IgVH-unmutated CLL including its disease progression. In addition, this model has also been widely used by others to test novel therapeutic molecules. […] Consecutive blood sampling allowed us to carry out a longitudinal study in individual TCL1 and control mice. For this, we chose a cohort of TCL1 and littermate control mice, which were 9-12 months old (Figure 5A). We chose TCL1 transgenics with high peripheral CLL cell (CD19+CD5+) counts (14.6±7.4/nl, mean±SEM). Given the presumably high leukemic burden in these aged TCL1 mice and the reduced general condition of some NSG mice receiving 75 mg/kg for 5 days we decided to dose TCL1 mice with 50 mg/kg daily for two consecutive days (Figure 5A). As the experiment was longitudinally designed and there was no effect expected of administering carrier to wild-type control mice we omitted this control group and established three experimental groups (Figure 5A). In order to minimize stress by collecting blood specimens we sampled blood three times, 8 days apart (days -5, +3 and +11; Figure 5A). Compared to blood smears prepared before commencing LDC526 treatment a marked decrease of peripheral blood leukocytes and CLL cells was observed two days post the last LDC526 administration to TCL1 transgenic mice (Figure 5B). In contrast to the carrier control treated TCL1 mice, white blood cell counts (WBC) dropped in LDC526-treated wild-type and TCL1 mice (Figure 5C). In comparison to wild-type control mice, where WBC dropped to 34% of baseline values, the WBC decrease in TCL1 mice was more dramatic dropping to 8% of baseline values (Figure 5D).
(§1) All mice were bred and housed at the University Hospital Essen animal care facility. TCL1 mice were back-crossed more than 6 generations into the C57BL/6 background and were genotyped as previously described. Age-matched TCL1 wild-type littermates served as controls. Peripheral blood counts were determined with the VetABC analyzer (scil, Viernheim, Germany). Blood smears were Wright-Giemsa stained. For the human CLL xenograft experiments eight to 14-week-old NOD.Cg-Prkdc^scid Il2rg^tm1Wjl/SzJ (NOD/scid/γc^null; NSG) mice were sublethally irradiated (3.25 Gy) 24 hours before transplantation. Freshly isolated 1.0 x 10^8 PBMC suspended in 0.2 ml of RPMI were intravenously transplanted as previously described. For oral administration, LDC526 was diluted in polyethelene glycol (PEG Mn 400, Sigma-Aldrich) and administerd by gavage. Animal experiments were performed in accordance with institutional guidelines approved by the Animal Care Committee of the University Hospital Essen.
(§2) LDC526 [(3-((4-(4-fluoro-2-methoxyphenyl)-1,3,5-triazin-2-yl)amino)phenyl)methane-sulfonamide, molecular weight 389,41 g/mol, Figure 1A] was provided as powder (LDC526 synthesis, supplementary methods). For oral gavage administration LDC526 was diluted in polyethelene glycol (PEG Mn 400, Sigma-Aldrich, Munich, Germany) followed by sonication for 3 x 5 minutes with intermediate mixing.
Apoptosis and cell death were determined by using Annexin V (BD Biosciences, Heidelberg, Germany) and 4′,6-Diamidin-2-phenylindol (DAPI, Sigma-Aldrich) staining. Erythrocytes of murine peripheral blood samples were lysed with NH4Cl hypotonic solution. Single cell suspensions of murine spleens were prepared as previously described. Murine cells were stained with antibodies directed against murine CD3 (clone 145-2C11), CD5 (53-7.3) and CD19 (1D3), respectively. For the detection of human cells in NSG spleens antibodies against human CD3 (clone SK7), CD4 (SK3), CD5 (L17F12), CD8 (SK1), CD19 (J3-119 or SJ25C1) and CD45 (2D1) were used (purchased from BD Bioscience, Biolegend and Beckman Coulter). […]

[2] = test system: human CLL cells and human T cells in NSG spleens; assay: Human CLL xenograft in NSG mice, oral LDC526; type: in vivo, mouse; conditions: for mean weight loss: 75 mg/kg group
From the text: We and others previously established human CLL xenograft models using NOD/SCID and NSG mice, respectively. We chose to use the NSG model for LDC526 experiments since NSG CLL and concomitant T cell engraftment levels are expected to be higher than in the NOD/SCID model. We intravenously injected PBMCs from n=6 CLL patients into n=57 NSG mice and commenced LDC treatment with a 14 day latency according to the experimental set-up outlined in Figure 3A. To study the effect of doses and treatment duration we chose to administer 50 and 75 mg/kg for three days (NSG transplanted with cells originating from n=3 patients) and for five days (NSG transplanted with cells originating from n=3 additional patients). On experimental days 17 and 21 NSG spleens were harvested and the content of human CLL and T cells was determined by cell counting and flow cytometry (Figure 3B). […] Compared to carrier control treatment, numbers of human CLL cells decreased after 3 and 5 days of LDC526 treatment, respectively. However, statistical significance regarding the reduction of human CLL cell numbers was only achieved at the LDC526 75 mg/kg dose level (Figure 3C). […] In order to determine whether there was differential in vivo LDC526 sensitivity of T cell subsets we performed additional staining for human CD4+ and CD8+ T cells present in the spleens of xenografted NSG mice (Figure 4A). […] In contrast, in mice transplanted with cells of n=2 other CLL patients and receiving LDC526 treatment for 5 days we observed a rising CD4/CD8 ratio with increasing LDC526 doses (Figure 4B). This could mean that CD8+ cytotoxic T cells are more susceptible to longer LDC526 exposure (5 versus 3 days) than CD4+ T cells. However, this differential skew within the T cell compartment could also reflect the heterogeneity of T cells derived from different CLL patients. […] A mean weight loss of 1.8% was detectable in mice of the LDC526 75 mg/kg group (day 16). […] Remarkably, human T cell numbers were already decreased at a lower dose level than human CLL cells.
as §1, §2
Apoptosis and cell death were determined by using Annexin V (BD Biosciences, Heidelberg, Germany) and 4′,6-Diamidin-2-phenylindol (DAPI, Sigma-Aldrich) staining. Erythrocytes of murine peripheral blood samples were lysed with NH4Cl hypotonic solution. Single cell suspensions of murine spleens were prepared as previously described. Murine cells were stained with antibodies directed against murine CD3 (clone 145-2C11), CD5 (53-7.3) and CD19 (1D3), respectively. […]

[3] = 75 mg/kg, day 21, representative plot

SMILES: COc1cc(F)ccc1-c1ncnc(Nc2cccc(CS(N)(=O)=O)c2)n1 [LDC526, (3-((4-(4-fluoro-2-methoxyphenyl)-1,3,5-triazin-2-yl)amino)phenyl)methane-sulfonamide]
- decrease of peripheral blood CLL counts of individual TCL1 mice ([1]; 50 mg/kg for two days): at least 8 fold
- decrease of TCL1 blood T cells ([1]; 50 mg/kg for two days, day +3): 6 fold
- decrease of mean TCL1 blood CLL numbers compared to baseline ([1]; 50 mg/kg for two days, day +3): 16 fold
- hemoglobin counts ([1]; LDC526-treated mice, longitudinal): did not change significantly
- increase of peripheral blood CLL numbers on day +11 compared to day +3 ([1]; TCL1 mice): 29%
- mean platelet concentrations, percent of baseline levels ([1]; TCL1 mice after LDC526 treatment): ≥ 50%
- WBC, percent of baseline values ([1]; TCL1 mice, 50 mg/kg daily for two days, day +3): 8%
- drop of mean WBC ([1]; TCL1 mice, 50 mg/kg for two days): 12 fold
- non-malignant B cell numbers, percent of baseline values ([1]; TCL1 mice, peripheral blood): 1.4%
- peripheral blood TCL1 CLL cells, percent of baseline levels ([1]; day +3): 6.4%
- splenic weights versus carrier control TCL1 mice ([1]; day +11): significantly lower
- reduction of human CLL cells in NSG spleens compared to carrier control ([2]; 75 mg/kg for 5 days): 77%
- mean weight loss ([2]; day 16): 1.8%
- mean weight loss ([2]; day 21): 3.6%
- flow cytometry gate huCD4, NSG spleen T cells [2, 3]: 81.2
- flow cytometry gate huCD8, NSG spleen T cells [2, 3]: 14.7
- flow cytometry gate huCD45+ huCD3, NSG spleen [2, 3]: 38.7
- numbers of splenic human T cells ([2]; 50 and 75 mg/kg, 3 or 5 days): significantly reduced at both LDC526 doses
